The record followed here is PubChem BioAssay AID226 (DTP/NCI, 2004).

The test system of this assay is B6C3F1 mice, intracerebral ependymoblastoma, median survival T/C. Description: NCI In Vivo Anticancer Drug Screen. Data for tumor model Ependymoblastoma (intracerebral) in B6C3F1 mice. The settings on record: endpoint: median survival time, higher = longer survival. The procedure: The antitumor activity of compounds was measured in mice bearing transplantable tumors. Survival or tumor size were measured and the results are expressed as the measurement made in the treated group (T) divided by the measurement made in the vehicle treated control group (C). The tumor model used in this assay is Ependymoblastoma (intracerebral) in B6C3F1 mice

Where “and” joins values, the source holds several entries; their conditions need not be identical. Identical values can stand only once. Inconclusive results and toxic doses are left out.

`O=NN(CCCl)C(=O)NC1CCCCC1`: the T/C is 110 % of control (dose: 1.5 mg/kg/injection, schedule: Q01DX009 (ip), vehicle: Klucel (hydroxypropylcellulose) (HPC)); 98 % of control (dose: 2.4 mg/kg/injection, schedule: Q01DX001 (ip), vehicle: other); 241 % of control (dose: 4.0 mg/kg/injection, schedule: Q01DX009 (ip), vehicle: Klucel (hydroxypropylcellulose) (HPC)); 102 % of control (dose: 4.7 mg/kg/injection, schedule: Q01DX001 (ip), vehicle: other); 154 % of control (dose: 5.18 mg/kg/injection, schedule: Q01DX005 (ip), vehicle: Klucel (hydroxypropylcellulose) (HPC)); 213 % of control (dose: 6.0 mg/kg/injection, schedule: Q01DX009 (ip), vehicle: Klucel (hydroxypropylcellulose) (HPC)). For the same compound, the T/C is, setting by setting: (dose: 8.0 mg/kg/injection, schedule: Q01DX009 (ip), vehicle: Klucel (hydroxypropylcellulose) (HPC)) 241 % of control; (dose: 8.64 mg/kg/injection, schedule: Q01DX005 (ip), vehicle: Klucel (hydroxypropylcellulose) (HPC)) 244 % of control; (dose: 9.5 mg/kg/injection, schedule: Q01DX001 (ip), vehicle: other) 121 % of control; (dose: 12.0 mg/kg/injection, schedule: Q01DX009 (ip), vehicle: Klucel (hydroxypropylcellulose) (HPC)) 326 % of control; (dose: 13.0 mg/kg/injection, schedule: Q01DX001 (ip), vehicle: Klucel (hydroxypropylcellulose) (HPC)) 181 % of control; (dose: 14.4 mg/kg/injection, schedule: Q01DX005 (ip), vehicle: Klucel (hydroxypropylcellulose) (HPC)) 357 % of control. For the same compound, the T/C reads like this: (dose: 16.0 mg/kg/injection, schedule: Q01DX009 (ip), vehicle: Klucel (hydroxypropylcellulose) (HPC)) 104 % of control; (dose: 18.9 mg/kg/injection, schedule: Q01DX001 (ip), vehicle: other) 171 % of control; (dose: 21.6 mg/kg/injection, schedule: Q01DX001 (ip), vehicle: Klucel (hydroxypropylcellulose) (HPC)) 193 % of control; (dose: 24.0 mg/kg/injection, schedule: Q01DX005 (ip), vehicle: Klucel (hydroxypropylcellulose) (HPC)) 357 % of control; (dose: 24.0 mg/kg/injection, schedule: Q01DX009 (ip), vehicle: Klucel (hydroxypropylcellulose) (HPC)) 315 % of control; (dose: 32.0 mg/kg/injection, schedule: Q01DX001 (ip), vehicle: saline + alcohol) 233 % of control. Also, the T/C reads like this: (dose: 36.0 mg/kg/injection, schedule: Q01DX001 (ip), vehicle: Klucel (hydroxypropylcellulose) (HPC)) 363 % of control; (dose: 37.8 mg/kg/injection, schedule: Q01DX001 (ip), vehicle: other) 331 % of control; (dose: 40.0 mg/kg/injection, schedule: Q01DX005 (ip), vehicle: Klucel (hydroxypropylcellulose) (HPC)) 154 % of control; (dose: 60.0 mg/kg/injection, schedule: Q01DX001 (ip), vehicle: Klucel (hydroxypropylcellulose) (HPC)) 363 % of control; (dose: 64.0 mg/kg/injection, schedule: Q01DX001 (ip), vehicle: saline + alcohol) 324 % of control; (dose: 100.0 mg/kg/injection, schedule: Q01DX001 (ip), vehicle: Klucel (hydroxypropylcellulose) (HPC)) 363 % of control. Also, the T/C (dose: 128.0 mg/kg/injection, schedule: Q01DX001 (ip), vehicle: saline + alcohol) is 90 % of control.
`ClC(Cl)=C(Cl)Cl`: the T/C reads like this: (dose: 25.0 mg/kg/injection, schedule: Q01DX005 (ip), vehicle: other) 110 % of control and 122 % of control; (dose: 50.0 mg/kg/injection, schedule: Q01DX005 (ip), vehicle: other) 100 % of control and 113 % of control; (dose: 100.0 mg/kg/injection, schedule: Q01DX005 (ip), vehicle: other) 101 % of control and 105 % of control; (dose: 200.0 mg/kg/injection, schedule: Q01DX005 (ip), vehicle: other) 93 % of control and 97 % of control.
